Experimental data taken from EP0146443A1, “(-)-1-(2-Fluorophenyl)-2-tertiobutylamino-1-ethanol and therapeutical use” (LABORATOIRE L. LAFON Société anonyme dite:, priority 1983, dated 1985).

Assays:
Type in all cases: in vivo
[1] = tested on: souris; test: Interaction with oxotremorine; details: for effet hypothermisant de l'oxotrémorine / tremblements provoqués par l'oxotrémorine: 0.5 h before oxotremorine 0,5 mg/kg i.p.
Method: (§1) Dans ces essais les produits à tester en solution dans de l'eau distillée (pH5) ont été administrés, par voie intrapéritonéale, sous un volume de 20 ml/kg chez la souris mâle, et, sous un volume de 5 ml/kg chez le rat mâle.
Chaque produit à tester est administré à des lots de 6 souris une demi-heure avant l'injection intrapéritonéale de 0,5 mg/kg d'oxotrémorine.

[2] = tested on: homme; test: Clinical use in depressive states; details: oral route, human
Method: La posologie préconisée consiste à administrer par jour 3 comprimés ou gélules renfermant chacun 3 à 4 mg de CRL 40 996.

[3] = tested on: souris; test: Behavioural despair (immobility in water); details: 0.5 h before immersion
Method: as §1
Une demi-heure après avoir reçu les produits à tester, des lots de 6 souris sont placés dans un bécher rempli d'eau sur une hauteur de 6 cm. On note la durée totale d'immobilité entre la 2ème et la 6ème minutes suivant l'immersion.

[4] = tested on: souris; test: Interaction with apomorphine; details: 0.5 h before apomorphine 16 mg/kg s.c.
Method: as §1
Des lots de 6 souris reçoivent chaque produit à tester une demi-heure avant l'injection sous-cutanée de 16 mg/kg d'apomorphine.

[5] = tested on: souris; test: Acute toxicity, intraperitoneal, mouse; details: I.P.
Method: as §1
Le CRL 40 996 est moins toxique que les CRL 40 995 et CRL 40 827. En effet si la DL-0 (dose maximale non mortelle) des trois substances est supérieure ou égale à 64 mg/kg (I.P.; souris), la DL-60 du CRL 40 996 est de l'ordre de 128 mg/kg (I.P.; souris)et la DL-100 des CRL 40 995 et CRL 40 827 est inférieure ou égale à 128 mg/kg (I.P.; souris).

[6] = tested on: souris; test: Spontaneous motility (actimeter); details: recorded for 0,5 h, 0.5 h after dosing
Method: as §1
Une demi-heure après avoir reçu les produits à tester, les souris (6 par dose, 12 témoins) sont placées en actimètre où leur motilité est enregistrée pendant 0,5 h.

[7] = tested on: rat; test: Global behaviour and reactivities, rat
Method: as §1
(§2) Des lots de 6 animaux sont observés avant, puis 0,25 h, 0,50 h, 1 h, 2 h, 3 h, et 24 h après administration des produits à étudier.

[8] = tested on: souris; test: Interaction with reserpine
Method: as §1
Quatre heures après l'injection intrapéritonéale de 2,5 mg/kg de réserpine, des lots de 6 souris reçoivent chaque produit à tester.

[9] = tested on: souris; test: Global behaviour and reactivities, mouse; details: for comportement et réactivités: doses of 2 and 0,5 mg/kg i.p.
Method: as §1, §2

[10] = peripheral cholinergic symptoms after oxotremorine 0,5 mg/kg i.p.
[11] = from the dose of 0,5 mg/kg i.p.
[12] = from the dose of 0.5 mg/kg i.p.
[13] = 32 mg/kg i.p., 4 h after reserpine 2,5 mg/kg i.p.
[14] = doses of 0,5, 2 and 8 mg/kg i.p., 4 h after reserpine 2,5 mg/kg i.p.

## CC(C)(C)NCC(O)c1ccccc1F (single isomer, unassigned) [CRL 40 996, chlorhydratede (-)-1-(2-fluorophényl)-2-tertio-butylamino-1-éthanol]
[1]; i.p., dose not stated
  effet hypothermisant de l'oxotrémorine: an- tagonisé
  tremblements provoqués par l'oxotrémorine: ne sont pas modifiés
[1]; [10]
  défécation: semble diminuer
  salivation et lacrymation: sans modifier
[2]
  effet antidépresseur dans le traitement des états dépressifs: bon agent antidépresseur
[3]; doses of 8 and 32 mg/kg i.p.
  durée d'immobilité: diminue modérément
[4]; [11]
  comportement de verticalisation et stéréotypies: sans modifier
  hypothermie induite par l'apomorphine: antagonisme net
[5]
  DL-0 (dose maximale non mortelle): ≥ 64 mg/kg
  DL-60: ~128 mg/kg
[6]; doses of 8 and 32 mg/kg i.p.
  activité motrice spontanée: diminution très importante
[7]; 4 mg/kg i.p.
  sédation fugace (duration): 0,25 h
[7]; 16 mg/kg i.p.
  dyspnée (duration): 1 h
  sédation (duration): 0,5 h
[7]; doses of 1 and 0,25 mg/kg i.p.
  comportement et réactivités: sans modifications sensibles par rapport aux animaux témoins
[8]; [12]
  latence de l'effet sur l'hypothermie réserpinique: ~1 heure
  ptôsis: sans modifier
[8]; from the dose of 0.5 mg/kg i.p., effect does not clearly increase with dose
  hypothermie réserpinique: combat modérément
[9]; 8 mg/kg i.p.
  diminution de la réactivité au toucher et du tonus musculaire (duration): 0,25 h
  hypothermie: -1,8 °C
  hypothermie (duration): 0,25 h
  sédation (duration): 0,5 h
[9]; 32 mg/kg i.p.
  diminution de la réactivité au toucher et du tonus musculaire (duration): 0,25 h
  disparition du "pinna reflex" (duration): 0,5 h
  hypothermie: -2,0 °C
  sédation (duration): 0,5 h
[9]
  comportement et réactivités: sans modifications sensibles par rapport aux animaux témoins

## CC(C)(C)NCC(O)c1ccccc1F (racemic) [CRL 40 827, chlorhydratede ( + )-1-(2-fluorophényl)-2-tertiobutylamino-1-éthanol]
[1]; i.p., dose not stated
  effet hypothermisant de l'oxotrémorine: an- tagonisé
  tremblements provoqués par l'oxotrémorine: ne sont pas modifiés
[1]; [10]
  signes de stimulation cholinergique: laissent inchangés
[5]
  DL-0 (dose maximale non mortelle): ≥ 64 mg/kg
  DL-100: ≤ 128 mg/kg
[6]; 8 mg/kg i.p.
  activité motrice spontanée: ne modifie pas
[6]; 32 mg/kg i.p.
  activité motrice spontanée: semble la diminuer modérément mais pas significativement

## CC(C)(C)NCC(O)c1ccccc1F (single isomer, unassigned) [CRL 40 995, chlorhydratede (+)-1-(2-fluorophényl)-2-tertio-butylamino-1-éthanol]
[1]; 32 mg/kg i.p., worded as 'seems'
  tremblements provoqués par l'oxotrémorine: potentialiser
[1]; i.p., dose not stated
  effet hypothermisant de l'oxotrémorine: n'est pas modifié
[1]; [10]
  signes de stimulation cholinergique: laissent inchangés
[3]; i.p., dose not stated
  durée de l'immobilité dite du "désespoir comportemental": ne modifie pas
[4]; doses of 8 and 32 mg/kg i.p.
  action hypothermisante de l'apomorphine: s'oppose
  comportement de verticalisation et stéréotypies: sans modifier
[5]
  DL-0 (dose maximale non mortelle): ≥ 64 mg/kg
  DL-100: ≤ 128 mg/kg
[6]; doses of 8 and 32 mg/kg i.p.
  activité motrice spontanée: diminue modérément
[7]; doses of 16, 4, 1 and 0,5 mg/kg i.p.
  comportement et réactivités: sans modifications sensibles par rapport aux animaux témoins
[8]; [13]
  antagonisme de l'hypothermie réserpinique (animals showing it): 5 souris sur 6
  perte du réflexe de redressement (et l'hypothermie qui en résulte): 1 souris sur 6
[8]; [14]
  hypothermie réserpinique: s'oppose modérément
  ptôsis: sans modifier
[9]
  comportement et réactivités: sans modifications sensibles par rapport aux animaux témoins
[9]; doses of 32 and 8 mg/kg i.p.
  respiration déprimée (duration): 0,5 h
